Data published in the NIST ThermoML archive (doi:10.1021/acs.jced.8b00692).
± gives the expanded uncertainty stated by the source.

Experiment: xn = mol fraction of the nth substance listed
Conditions: 102 kPa, Liquid; for viscosity: Concentric cylinders viscometry; for speed of sound: Frequency=3 MHz, Single path-length method; for mass density: Vibrating tube method

CCCCCCCCCC1CCCCC1 [nonylcyclohexane] + CCCCCCCCCCCCCCCC
Conditions	mass density [kg/m3]	speed of sound [m/s]	viscosity [mPa·s]
293.15 K, x1 = 0.2005	781.15 ± 0.81	1363.9 ± 0.8	3.58 ± 0.02
293.15 K, x1 = 0.4001	789.28 ± 0.82	1371.3 ± 0.9	3.72 ± 0.02
293.15 K, x1 = 0.5002	793.52 ± 0.82	1375.2 ± 1	3.79 ± 0.02
293.15 K, x1 = 0.5998	797.86 ± 0.82	1379.1 ± 1.1	3.89 ± 0.03
293.15 K, x1 = 0.8002	806.91 ± 0.84	1387.3 ± 1.3	4.07 ± 0.03
293.15 K, x1 = 1	816.41 ± 0.87	1397.2 ± 1.5	4.34 ± 0.04
303.15 K, x1 = 0.2005	774.24 ± 0.81	1326.7 ± 0.8	2.84 ± 0.02
303.15 K, x1 = 0.4001	782.39 ± 0.82	1334.2 ± 0.9	2.95 ± 0.02
303.15 K, x1 = 0.5002	786.64 ± 0.82	1338.1 ± 1	3 ± 0.02
303.15 K, x1 = 0.5998	790.99 ± 0.82	1342 ± 1.1	3.06 ± 0.02
303.15 K, x1 = 0.8002	800.06 ± 0.84	1350.2 ± 1.3	3.2 ± 0.03
303.15 K, x1 = 1	809.57 ± 0.87	1359.6 ± 1.5	3.39 ± 0.03
313.15 K, x1 = 0.2005	767.33 ± 0.81	1290.2 ± 0.7	2.3 ± 0.02
313.15 K, x1 = 0.4001	775.51 ± 0.82	1297.7 ± 0.9	2.38 ± 0.02
313.15 K, x1 = 0.5002	779.77 ± 0.82	1301.6 ± 1	2.43 ± 0.02
313.15 K, x1 = 0.5998	784.12 ± 0.82	1305.6 ± 1.1	2.47 ± 0.02
313.15 K, x1 = 0.8002	793.21 ± 0.84	1313.8 ± 1.3	2.58 ± 0.02
313.15 K, x1 = 1	802.74 ± 0.86	1322.9 ± 1.5	2.72 ± 0.02
323.15 K, x1 = 0.2005	760.43 ± 0.81	1254.4 ± 0.7	1.9 ± 0.02
323.15 K, x1 = 0.4001	768.63 ± 0.82	1261.9 ± 0.9	1.96 ± 0.02
323.15 K, x1 = 0.5002	772.9 ± 0.82	1265.8 ± 1	2 ± 0.02
323.15 K, x1 = 0.5998	777.25 ± 0.82	1269.8 ± 1.1	2.03 ± 0.02
323.15 K, x1 = 0.8002	786.35 ± 0.84	1278.1 ± 1.3	2.12 ± 0.02
323.15 K, x1 = 1	795.8 ± 0.86	1287.1 ± 1.5	2.22 ± 0.02
333.15 K, x1 = 0.2005	753.54 ± 0.81	1219.5 ± 0.7	1.6 ± 0.01
333.15 K, x1 = 0.4001	761.74 ± 0.82	1226.9 ± 0.9	1.65 ± 0.02
333.15 K, x1 = 0.5002	766.02 ± 0.82	1230.9 ± 1	1.68 ± 0.02
333.15 K, x1 = 0.5998	770.38 ± 0.82	1234.9 ± 1.1	1.7 ± 0.02
333.15 K, x1 = 0.8002	779.49 ± 0.84	1243.4 ± 1.3	1.77 ± 0.02
333.15 K, x1 = 1	789.05 ± 0.86	1252.2 ± 1.5	1.85 ± 0.02
343.15 K, x1 = 0.2005	746.6 ± 0.8	–	1.38 ± 0.01
343.15 K, x1 = 0.4001	754.9 ± 0.8	–	1.4 ± 0.01
343.15 K, x1 = 0.5002	759.2 ± 0.8	–	1.44 ± 0.01
343.15 K, x1 = 0.5998	763.6 ± 0.8	–	1.45 ± 0.02
343.15 K, x1 = 0.8002	772.7 ± 0.8	–	1.5 ± 0.02
343.15 K, x1 = 1	782.2 ± 0.9	–	1.57 ± 0.02
353.15 K, x1 = 0.2005	739.7 ± 0.8	–	1.18 ± 0.01
353.15 K, x1 = 0.4001	748 ± 0.8	–	1.21 ± 0.01
353.15 K, x1 = 0.5002	752.3 ± 0.8	–	1.23 ± 0.01
353.15 K, x1 = 0.5998	756.8 ± 0.8	–	1.25 ± 0.01
353.15 K, x1 = 0.8002	765.8 ± 0.8	–	1.3 ± 0.02
353.15 K, x1 = 1	775.4 ± 0.9	–	1.35 ± 0.02
363.15 K, x1 = 0.2005	732.7 ± 0.8	–	1.05 ± 0.01
363.15 K, x1 = 0.4001	741.1 ± 0.8	–	1.06 ± 0.01
363.15 K, x1 = 0.5002	745.4 ± 0.8	–	1.09 ± 0.01
363.15 K, x1 = 0.5998	749.8 ± 0.8	–	1.09 ± 0.01
363.15 K, x1 = 0.8002	758.9 ± 0.8	–	1.13 ± 0.01
363.15 K, x1 = 1	768.5 ± 0.9	–	1.2 ± 0.02
373.15 K, x1 = 0.2005	725.7 ± 0.8	–	0.908 ± 0.012
373.15 K, x1 = 0.4001	734.2 ± 0.8	–	0.931 ± 0.012
373.15 K, x1 = 0.5002	738.5 ± 0.8	–	0.944 ± 0.012
373.15 K, x1 = 0.5998	742.9 ± 0.8	–	0.96 ± 0.013
373.15 K, x1 = 0.8002	752 ± 0.8	–	1 ± 0.01
373.15 K, x1 = 1	761.6 ± 0.9	–	1.03 ± 0.01
